In PMC9188596, “Structural basis of resistance to herbicides that target acetohydroxyacid synthase” (Nature Communications, 2022):
Where “and” joins values, the source holds several entries; their conditions need not be identical. Equal entries are not always repeated. Where two headings read alike, the source gives them in different places.

Legend:
WT AtAHAS [1] = biological target: T1, WT AtAHAS (Arabidopsis thaliana, UniProt P17597); details: ± standard error of the mean, cited from earlier work
WT AtAHAS [2] = biological target: T1, WT AtAHAS; type: biochemical
Description: (§1) Standard assays were performed using a continuous spectrophotometric method measuring the disappearance of pyruvate. The standard buffer contained 50 mM potassium phosphate, pH 7.2, 1 mM ThDP, 10 mM MgCl2, and 10 µM FAD. The concentration of pyruvate was in the range 100–160 mM, as described in the text, methods, or figure legends.
(§2) AtAHAS was assayed in the standard assay buffer containing 160 mM pyruvate, at 30 °C. For AtAHAS activation the progress curve corresponding to the lag-phase was fitted to Eq. (8) of Lonhienne et al.[14]. For the time dependent accumulative inhibition of AtAHAS the progress curves were fitted to Equation 9 of Lonhienne et al.[12].
(§3) Supplementary Figure 8. Measurement of the rate constants of accumulative inhibition for WT AtAHAS and its mutants. The progress curves were fitted to the equation of accumulative inhibition (Equation 7 2). The rate constants of enzyme inactivation ( kiapp) and enzyme recovery (k3) were measured in triplicate. Source data are provided with this paper.

AtAHAS W574L mutant [3] = biological target: T2, AtAHAS W574L mutant (Arabidopsis thaliana, UniProt P17597, W574L); experiment: biochemical
Description: as §1
(§4) Supplementary Figure 6. Measurement of the Ki values for WT AtAHAS and the mutants.
(§5) The error bars represent the standard error of the mean of two independent replicates. [I] =
(§6) inhibitor concentration. Source data are provided with this paper.
(§7) (1 picture or pasted object on this page, not shown here)

AtAHAS P197L mutant [4] = biological target: T3, AtAHAS P197L mutant (Arabidopsis thaliana, UniProt P17597, P197L); experiment: biochemical
Description: as §1, §4, §5, §6, §7

AtAHAS P197T mutant [5] = biological target: T4, AtAHAS P197T mutant (Arabidopsis thaliana, UniProt P17597, P197T); experiment: biochemical
Description: as §1, §4, §5, §6, §7

AtAHAS S653T mutant [6] = biological target: T5, AtAHAS S653T mutant (Arabidopsis thaliana, UniProt P17597, S653T); experiment: biochemical
Description: as §1, §4, §5, §6, §7

AtAHAS W574L mutant [7] = biological target: T2, AtAHAS W574L mutant; type: biochemical; details: NAI = no accumulative inhibition detected
Description: as §1, §2
as §3, with “paper. […]” for “paper.”

AtAHAS P197L mutant [8] = biological target: T3, AtAHAS P197L mutant; type: biochemical; details: NAI = no accumulative inhibition detected
Description: as §1, §2
as §3, with “paper. […]” for “paper.”

AtAHAS P197T mutant [9] = biological target: T4, AtAHAS P197T mutant; type: biochemical; details: P197T, NAI = no accumulative inhibition detected
Description: as §1, §2
as §3, with “paper. […]” for “paper.”

AtAHAS S653T mutant [10] = biological target: T5, AtAHAS S653T mutant; type: biochemical
Description: as §1, §2
as §3, with “paper. […]” for “paper.”

WT AtAHAS [11] = biological target: T1, WT AtAHAS; experiment: Ki of herbicides, continuous spectrophotometric AHAS assay; type: biochemical
Description: as §1, §4, §5, §6, §7

[12] = individual replicate of triplicate
[13] = Ki (Supplementary Figure 6), W574L, fit of % activity remaining vs [I], two independent replicates
[14] = Ki, W574L mutant, ± standard error of the mean
[15] = Ki (Supplementary Figure 6), P197L, fit of % activity remaining vs [I], two independent replicates
[16] = Ki, P197L mutant, ± standard error of the mean
[17] = Ki, P197T mutant, ± standard error of the mean
[18] = Ki (Supplementary Figure 6), S653T, fit of % activity remaining vs [I], two independent replicates
[19] = Ki, S653T mutant, ± standard error of the mean
[20] = S653T, 160 mM pyruvate, 30 °C, ± SEM
[21] = S653T, individual replicate of triplicate
[22] = Ki (Supplementary Figure 6), P197T, fit of % activity remaining vs [I], two independent replicates

In the case of `COc1cnc(OC)n2nc(NS(=O)(=O)c3c(OCC(F)F)cccc3C(F)(F)F)nc12` [PS, penoxsulam], the Ki (WT AtAHAS [1]; ref Lonhienne et al.[11]) is listed as 1.9 ± 0.9 nM, the “kiapp/k3 (efficiency of accumulative inhibition)” value (WT AtAHAS [2]) is listed as 87 and the “k3 (rate of recovery)” value (WT AtAHAS [2]; 160 mM pyruvate, 30 °C, ± SEM) is listed as 0.014 ± 0.002 min⁻¹. The “kiapp (apparent rate of enzyme inactivation)” value (WT AtAHAS [2]; 160 mM pyruvate, 30 °C, ± SEM) was 1.22 ± 0.09 min⁻¹, the “k3, single progress curve (Supplementary Figure 8)” value (WT AtAHAS [2]; [12]) was 0.017 min⁻¹ and 0.011 min⁻¹ and 0.013 min⁻¹ and the “kiapp, single progress curve (Supplementary Figure 8)” value (WT AtAHAS [2]; [12]) was 1.4 min⁻¹ and 1.11 min⁻¹ and 1.17 min⁻¹. For the same molecule, the Ki (AtAHAS W574L mutant [3]; [13]) was 67100 ± 2970 nM, the Ki (AtAHAS W574L mutant [3]; [14]) was 67100 ± 3000 nM and the “increase in Ki / loss of affinity compared to WT” value (AtAHAS W574L mutant [3]; W574L vs WT) was 35,000 fold. For the same molecule, the Ki (AtAHAS P197L mutant [4]; [15]) was 81.9 ± 7.26 nM, the Ki (AtAHAS P197L mutant [4]; [16]) was 82 ± 7 nM and the Ki (AtAHAS P197T mutant [5]; [17]) was 85 ± 6.3 nM. For the same molecule, the Ki (AtAHAS S653T mutant [6]; [18]) was 5.04 ± 2.24 nM, the Ki (AtAHAS S653T mutant [6]; [19]) was 5 ± 2.2 nM and the “k3 (rate of recovery)” value (AtAHAS W574L mutant [7]; 160 mM pyruvate, 30 °C) was “NAI”. The “kiapp (apparent rate of enzyme inactivation)” value (AtAHAS W574L mutant [7]; 160 mM pyruvate, 30 °C) was “NAI”, the “kiapp/k3 (efficiency of accumulative inhibition)” value (AtAHAS W574L mutant [7]) was “NAI” and the “k3 (rate of recovery)” value (AtAHAS P197L mutant [8]; 160 mM pyruvate, 30 °C) was “NAI”. For the same molecule, the “kiapp (apparent rate of enzyme inactivation)” value (AtAHAS P197L mutant [8]; 160 mM pyruvate, 30 °C) was “NAI”, the “kiapp/k3 (efficiency of accumulative inhibition)” value (AtAHAS P197L mutant [8]) was “NAI” and the “k3 (rate of recovery)” value (AtAHAS P197T mutant [9]; 160 mM pyruvate, 30 °C) was “NAI”. For the same molecule, the “kiapp (apparent rate of enzyme inactivation)” value (AtAHAS P197T mutant [9]; 160 mM pyruvate, 30 °C) was “NAI”, the “kiapp/k3 (efficiency of accumulative inhibition)” value (AtAHAS P197T mutant [9]) was “NAI” and the “kiapp/k3 (efficiency of accumulative inhibition)” value (AtAHAS S653T mutant [10]; S653T) was 126. For the same molecule, the “efficiency of accumulative inhibition (kiapp/k3) compared to WT (in words)” value (AtAHAS S653T mutant [10]; S653T vs WT) was “increased”, the “k3 (rate of recovery)” value (AtAHAS S653T mutant [10]; [20]) was 0.015 ± 0.001 min⁻¹ and the “kiapp (apparent rate of enzyme inactivation)” value (AtAHAS S653T mutant [10]; [20]) was 1.89 ± 0.12 min⁻¹. The “k3, single progress curve (Supplementary Figure 8)” value (AtAHAS S653T mutant [10]; [21]) was 0.013 min⁻¹ and 0.016 min⁻¹ and 0.015 min⁻¹ and the “kiapp, single progress curve (Supplementary Figure 8)” value (AtAHAS S653T mutant [10]; [21]) was 1.78 min⁻¹ and 2.1 min⁻¹ and 1.71 min⁻¹.
For `COc1cc(OC)n2nc(S(=O)(=O)Nc3c(Cl)ccc(C)c3Cl)nc2n1` [MT, metosulam], the Ki (WT AtAHAS [11]; Ki (Supplementary Figure 6), Wild type AtAHAS, fit of % activity remaining vs [I], two independent replicates) was 28.7 ± 11.2 nM, the Ki (WT AtAHAS [11]; Ki, WT AtAHAS, ± standard error of the mean) was 29 ± 11.2 nM and the Ki (AtAHAS W574L mutant [3]; [14]) was 39300 ± 3900 nM. For the same molecule, the Ki (AtAHAS P197L mutant [4]; [15]) was 1320 ± 131 nM, the Ki (AtAHAS P197L mutant [4]; [16]) was 1320 ± 130 nM and the Ki (AtAHAS P197T mutant [5]; [22]) was 1130 ± 130 nM. For the same molecule, the Ki (AtAHAS P197T mutant [5]; [17]) was 1130 ± 130 nM, the Ki (AtAHAS S653T mutant [6]; [18]) was 66 ± 5.64 nM and the Ki (AtAHAS S653T mutant [6]; [19]) was 66 ± 5.6 nM.
In the case of `COc1cc(OC)nc(Sc2cccc(Cl)c2C(=O)O)n1` [PTB, pyrithiobac], the Ki (WT AtAHAS [1]; ref Garcia et al.[13]) is given as 179 ± 12 nM, the Ki (AtAHAS W574L mutant [3]; [13]) is given as 91200 ± 8190 nM and the Ki (AtAHAS W574L mutant [3]; [14]) is given as 91200 ± 8200 nM. It also gave a Ki (AtAHAS P197L mutant [4]; [15]) of 1950 ± 194 nM, a Ki (AtAHAS P197L mutant [4]; [16]) of 2000 ± 200 nM and a Ki (AtAHAS P197T mutant [5]; [22]) of 1460 ± 282 nM. It also gave a Ki (AtAHAS P197T mutant [5]; [17]) of 1500 ± 300 nM, a Ki (AtAHAS S653T mutant [6]; [18]) of 218 ± 15.8 nM and a Ki (AtAHAS S653T mutant [6]; [19]) of 218 ± 15.8 nM.
